From US20110223671A1, “Methods for using positively and negatively selectable genes in a filamentous fungal cell” (priority 2008, published 2011)

Legend:
Type in all cases: cell-based
[1] = tested on: Fusarium venenatum WTY1449-03-03 (bar+, tk+); test: Growth of spores of bar+, tk+ strain on FdU- and uridine-supplemented VNO3RLMT plates; details: 6 days, 28° C.
Procedure: To this end the bar+, tk+ strain Fusarium venenatum WTY1449-03-03 was revived on VNO3RLMT-BASTA™ plates (as described in Example 1) and induced to produce spores as described in Example 5. After harvesting and washing, the spores were plated (50,000 spores per 14 cm diameter plate) to FdU-supplemented VNO3RLMT plates containing 50 μM FdU and varying concentrations of uridine (0.1-1 mM). These plates were incubated at 28° C. in ChexAll Instant Seal Sterilization Pouches for 6 days, after which they were evaluated for growth.

[2] = tested on: Fusarium venenatum EmY1154-46-4.3 (pyrG-deleted); test: Germination efficiency of spores of pyrG-deleted strain on uridine- and FdU-supplemented media
Procedure: Germination efficiency of spores from the pyrG-deleted Fusarium venenatum strain EmY1154-46-4.3 on uridine- and FdU-supplemented media was tested. Spores of Fusarium venenatum EmY1154-46-4.3 were generated as described in Example 5 using RA medium supplemented with 10 mM uridine. Fifty spores in a volume of 200 μl were aliquoted to each of 45 VNO3RLMT plates (14 cm diameter) supplemented with 0, 25, or 50 μM FdU and 0, 0.01, 0.05, 0.1, or 0.25 mM uridine. Triplicate plates of each combination of FdU and uridine were set up and incubated in ChexAll Instant Seal Sterilization Pouches at 26° C. for 10 days.

[3] = tested on: Fusarium venenatum WTY1449-9-1 (tk-); test: Reconstruction experiment, growth on FdU-supplemented minimal media, tk- strain; details: 50 μM FdU
Procedure: (§1) To determine whether very low uridine concentrations could confer resistance to FdU in a tk+ strain, a reconstruction experiment was performed. The tk+ strain Fusarium venenatum WTY1449-3-3 and the tk− strain Fusarium venenatum WTY1449-9-1 were used. Spores of each strain were induced and plated at 50 spores per plate (Fusarium venenatum WTY1449-9-1) or 50,000 spores per 14 cm diameter plate (Fusarium venenatum WTY1449-3-3). In addition, a combination of WTY1449-3-3 and WTY1449-9-1 spores, […], were mixed and plated. All plates contained VNO3RLMT supplemented with 50 μM FdU. The uridine concentration in the plates was 1, 0.5, 0.25, or 0.1 mM. Each treatment was performed in triplicate.
(§2) Colonies appearing on the plates on which mixtures of tk+ and tk− spores had been plated were sub-cultured to fresh plates of VNO3RLMT medium supplemented with 50 μM FdU (NO uridine). An equivalent number of samples were also sub-cultured from the background growth (3 colonies per mixed plate) to VNO3RLMT+50 μM FdU (No uridine). In addition, colonies and background growth were sub-cultured from pure tk− plates and pure tk+ plates to plates of VNO3RLMT+50 μM FdU (no uridine). […]

[4] = tested on: Fusarium venenatum WTY1449-3-3 (tk+); test: Reconstruction experiment, growth on FdU-supplemented minimal media, tk+ strain; details: 50 μM FdU
Procedure: as §1, §2

[5] = tested on: Fusarium venenatum WTY842-1-11; test: Sensitivity testing of Fusarium venenatum WTY842-1-11 to FdU (plug growth on VNO3RLMT); details: 14 days
Procedure: For a thymidine kinase gene (tk) to be useful as a negatively selectable marker, a fungus must be […] to rather high concentrations of the nucleoside analog 5-fluoro-deoxyuridine (FdU). In order to ascertain the degree of sensitivity of Fusarium venenatum WTY842-1-11 to FdU, a one week old culture of Fusarium venenatum WTY842-1-11 was prepared by plating a colonized agar plug of the strain taken from a 10% glycerol stock, which had been stored at −140° C., onto a VNO3RLMT plate and incubating in a ChexAll Instant Seal Sterilization Pouch (Fisher Scientific, Pittsburgh, Pa., USA) for 7 days at 26-28° C. After 7 days plugs were cut sub-marginally from the one week old culture and placed face down on VNO3RLMT medium supplemented with different concentrations of FdU (0 to 500 μM) (Sigma Chemical Co., St. Louis, Mo., USA) in 6 well plates. The plates were incubated at 26-28° C. in open ZIPLOC® bags (S.C. Johnson Home Storage, Inc., Racine, Wis., USA) for 14 days, after which the extent of growth at each FdU concentration was recorded.

## O=c1[nH]c(=O)n([C@H]2C[C@H](O)[C@@H](CO)O2)cc1F [FdU, 5-fluoro-deoxyuridine]
[1]; 50 μM FdU plus uridine 0.1-1 mM
  growth: extensive growth
[1]; 50 μM FdU, without uridine
  growth: no growth
[2]; 25 and 50 μM FdU, uridine 0.1 mM, 75% in the absence of FdU
  spore germination frequency: approximately 50%
[2]; 25 or 50 μM FdU, uridine 0.01 mM, 10 days, 26° C.
  spore germination: could not germinate
[3]; all concentrations of uridine and medium lacking uridine
  growth: grew well
[3]; uridine-deficient media
  growth after sub-culture: grew normally
[4]; uridine 0.1-1 mM plates
  growth: grew as a uniform haze
[4]; uridine-deficient media
  growth after sub-culture: could absolutely not grow
[5]; FdU 0 to 500 μM, VNO3RLMT, 26-28° C.
  sensitivity (extent of growth) to FdU: insensitive
[5]; compared to concentrations of 50 μM and below
  FdU concentration at which growth was slightly reduced: greater than 100 μM
